Test results taken from patent publication US7989451B2, “Tricyclic 1,2,4-triazine oxides and compositions for therapeutic use in cancer treatments” (Auckland Uniservices Limited, priority 2005, dated 2011).
Like-named read-outs stand apart in the source and are kept apart here.

Assays:
[1] = tested on: human colon carcinoma HT29; assay: Proliferation assay (IC50) under aerobic and hypoxic conditions, HT29; assay type: cell-based; details: for IC50: Homo sapiens, 4 h drug exposure, sulforhodamine B; for HCR: hypoxic cytotoxicity ratio = IC50 aerobic/IC50 hypoxic
Protocol: (§1) Compounds representative of the invention were evaluated under both aerobic and hypoxic conditions in a proliferation assay (IC50), using two cell lines: human colon carcinoma HT29, and human cervical carcinoma SiHa (Table 1).
(§2) Drug exposures were performed in 96-well plates (Nunc) either using a 37 DC humidified incubator (20% O2, 5% CO2) or in the incubator compartment (37° C.) of an anaerobic chamber (Shell Lab) where palladium catalyst scrubbed gas (90% N2, 5% H2, 5% CO2) ensures severe anoxia (<0.001% O2). For each experiment, compounds were simultaneously tested under both oxic and hypoxic conditions and included TPZ as an internal control. An 8-methyl-5-nitroquinoline derivative, SN 24349, known to require very low oxygen concentrations for bioactivation (Siim et al., Br. J. Cancer 1994, 70, 596-603) was used to confirm that strict hypoxia was present during the experiment. […] Cell cultures were grown in αMEM (Gibco) containing 5% heat inactivated FCS and maintained in exponential growth phase. For each individual experiment an appropriate number of cells were seeded (HT29=1100; SiHa=1500) into wells in αMEM+10% FCS+10 mM added glucose+100 μM 2′-deoxycytidine (2′dCyd), and allowed to attach for 2-3 h. High glucose (final concentration 17 mM) and the presence of 2′-dCyd minimize hypoxia-induced cell cycle arrest. Cultures were then exposed to drugs, using 3-fold serial dilutions in duplicate, for a further 4 h. Subsequently cells were washed free of compound using complete media (without glucose/2′-dCyd) and allowed to grow for 5 (oxic) or 6 (anoxic) days. Plates were stained with sulforhodamine B as described previously (Wilson et al., J. Med. Chem. 1989, 32, 31-38) and IC50 values determined.
(§3) HCR=Hypoxic cytotoxicity ratio is defined as the ratio of IC50 values under aerobic and hypoxic conditions (IC50 aerobic/IC50 hypoxic).

[2] = tested on: human cervical carcinoma SiHa; assay: Proliferation assay (IC50) under aerobic and hypoxic conditions, SiHa; assay type: cell-based; details: for IC50: Homo sapiens, 4 h drug exposure, sulforhodamine B; for HCR: hypoxic cytotoxicity ratio = IC50 aerobic/IC50 hypoxic
Protocol: as §1, §2, §3

[3] = HT-29, hypoxic (anaerobic chamber, <0.001% O2), then 6 days growth, read-out: IC50 (μM) hypoxic
[4] = HT-29, oxic (20% O2), then 5 days growth, read-out: IC50 (μM) oxic
[5] = hypoxic (anaerobic chamber, <0.001% O2), then 6 days growth, read-out: IC50 (μM) hypoxic
[6] = oxic (20% O2), then 5 days growth, read-out: IC50 (μM) oxic

IC50 [1, 3] [µM] | IC50 [1, 4] [µM] | IC50 [2, 5] [µM] | IC50 [2, 6] [µM] | melting point [°C] | SMILES | HCR [1] | HCR [2]
19 ± 6 | 459 ± 93 | 8.4 ± 3.2 | 415 ± 133 | 161 to 163 | CC1Cc2cc3c(cc2C1)[n+]([O-])c(NCCCN1CCOCC1)n[n+]3[O-] (stereo not drawn) [Compound 99, 7-Methyl-N-[3-(4-morpholinyl)propyl]-7,8-dihydro-6H-indeno[5,6-e][1,2,4]triazin-3-amine 1,4-Dioxide] | 25 ± 2 | 50 ± 3
4.2 ± 1.5 | 72 ± 22 | 0.9 ± 0.2 | 59 ± 4 | 138 to 141 | CCN(CC)CCNc1n[n+]([O-])c2c3c(ccc2[n+]1[O-])CCC3 [Compound 9, N^1,N^1-Diethyl-N^2-(1,4-dioxido-8,9-dihydro-7H-indeno[5,4-e][1,2,4]triazin-3-yl)-1,2-ethanediamine] | 17 ± 5 | 64 ± 4
2.4 ± 0.3 | 233 ± 19 | 1.4 ± 0.4 | 99 ± 14 | 150 to 152 | COC1CN(CCCNc2n[n+]([O-])c3cc4c(cc3[n+]2[O-])CCC4)C1 [Compound 55, N-[3-(3-Methoxy-1-azetidinyl)propyl]-7,8-dihydro-6H-indeno[5,6-e][1,2,4]triazin-3-amine 1,4-Dioxide] | 102 ± 22 | 83 ± 34
7.1 ± 0.8 | 494 ± 36 | 2 ± 0.2 | 114 ± 2 | 128 to 130 | COC1CCN(CCCNc2n[n+]([O-])c3cc4c(cc3[n+]2[O-])CCC4)CC1 [Compound 59, N-[3-(4-Methoxy-1-piperidinyl)propyl]-7,8-dihydro-6H-indeno[5,6-e][1,2,4]triazin-3-amine 1,4-Dioxide] | 70 ± 5 | 57 ± 1
15 ± 6 | 387 ± 108 | 8.3 ± 0.4 | 253 ± 30 | 190 to 195 | Nc1n[n+]([O-])c2cc3c(cc2[n+]1[O-])CCC3 [Compound 20, 7,8-Dihydro-6H-indeno[5,6-e][1,2,4]triazin-3-amine 1,4-Dioxide] | 27 ± 2 | 31 ± 5
5.2 ± 0.9 | 250 ± 119 | 1.2 ± 0.1 | 99 ± 32 | 131 to 133 | CN(C)CCNc1n[n+]([O-])c2cc3c(cc2[n+]1[O-])CCCCC3 [Compound 189, N^1-(1,4-Dioxido-7,8,9,10-tetrahydro-6H-cyclohepta[g][1,2,4]benzotriazin-3-yl)-N^2,N^2-dimethyl-1,2-ethanediamine] | 54 ± 32 | 88 ± 32
5.2 ± 0.3 | 258 ± 207 | 1.9 ± 0.2 | 176 ± 70 | 186 to 189 | CN(C)CCNc1n[n+]([O-])c2cc3c(cc2[n+]1[O-])OCC3 [Compound 208, N^1-(1,4-Dioxido-7,8-dihydrofuro[2,3-g][1,2,4]benzotriazin-3-yl)-N^2,N^2-dimethyl-1,2-ethanediamine] | 46 ± 36 | 128 ± 3
2.9 ± 0.1 | 210 ± 38 | 1.7 ± 0.2 | 226 ± 14 | 119 to 121 | CC1Cc2cc3c(cc2C1)[n+]([O-])c(CCCN1CCOCC1)n[n+]3[O-] (stereo not drawn) [Compound 104, 7-Methyl-3-[3-(4-morpholinyl)propyl]-7,8-dihydro-6H-indeno[5,6-e][1,2,4]triazine 1,4-Dioxide] | 72 ± 13 | 134 ± 4
> 50 | 1610 | 20.5 ± 3.3 | 455 ± 25 | 182 to 184 | [O-][n+]1nc(NCCCO)[n+]([O-])c2cc3c(cc21)CCC3 [Compound 51, 3-[(1,4-Dioxido-7,8-dihydro-6H-indeno[5,6-e][1,2,4]triazin-3-yl)amino]-1-propanol] |  | 22 ± 1
3.5 ± 0.4 | 185 ± 27 | 1.4 ± 0.3 | 123 ± 17 | 149 to 151 | CC1Cc2cc3c(cc2C1)[n+]([O-])c(NCCN(C)C)n[n+]3[O-] (stereo not drawn) [Compound 97, N^1,N^1-Dimethyl-N^2-(7-methyl-1,4-dioxido-7,8-dihydro-6H-indeno[5,6-e][1,2,4]triazin-3-yl)-1,2-ethanediamine] | 54 ± 14 | 97 ± 33
13 ± 7 | 471 ± 443 | 4.7 ± 3.3 | 304 ± 254 | 175 to 179 | CN(C)CCNc1n[n+]([O-])c2cc3c(cc2[n+]1[O-])OCO3 [Compound 224, N^1-(1,4-Dioxido[1,3]dioxolo[4,5-g][1,2,4]benzotriazin-3-yl)-N^2,N^2-dimethyl-1,2-ethanediamine] | 26 ± 21 | 53 ± 17

Further lines, the compound ahead of its results:

SMILES | IC50 [1, 3] [µM] | IC50 [1, 4] [µM] | IC50 [2, 5] [µM] | IC50 [2, 6] [µM] | melting point [°C] | HCR [1] | HCR [2]
[O-][n+]1nc(NCCCN2CCOCC2)[n+]([O-])c2cc3c(cc21)OCC3 [Compound 200, N-[3-(4-Morpholinyl)propyl]-6,7-dihydrofuro[3,2-g][1,2,4]benzotriazin-3-amine 1,4-Dioxide] | 22 ± 4.2 | 177 ± 80 | 3.4 ± 0.8 | 90 ± 24 | 145 to 148 | 8 ± 3 | 28 ± 6
CCc1n[n+]([O-])c2cc3c(cc2[n+]1[O-])CC(CO)C3 (stereo not drawn) [Compound 136, (3-Ethyl-1,4-dioxido-7,8-dihydro-6H-indeno[5,6-e][1,2,4]triazin-7-yl)methanol] | 17.1 | 774 ± 8 | 6.5 ± 0.2 | 314 ± 60 | 157 to 158 | 45 | 48 ± 8
[O-][n+]1nc(CCCO)[n+]([O-])c2cc3c(cc21)CCC3 [Compound 71, 3-(1,4-Dioxido-7,8-dihydro-6H-indeno[5,6-e][1,2,4]triazin-3-yl)-1-propanol] | 15 ± 3 | 874 ± 119 | 6.9 ± 3.3 | 680 ± 95 | 153 to 155 | 57 ± 1 | 114 ± 31
[O-][n+]1nc(NCCN2CCCCC2)[n+]([O-])c2ccc3c(c21)CCC3 [Compound 13, N-[2-(1-Piperidinyl)ethyl]-8,9-dihydro-7H-indeno[5,4-e][1,2,4]triazin-3-amine 1,4-Dioxide] | 4.9 ± 0.6 | 251 ± 24 | 1 ± 0.1 | 52 ± 8 | 138 to 141 | 53 ± 11 | 51 ± 1
COCCN(C)CCNc1n[n+]([O-])c2cc3c(cc2[n+]1[O-])CCC3 [Compound 31, N^1-(1,4-Dioxido-7,8-dihydro-6H-indeno[5,6-e][1,2,4]triazin-3-yl)-N^2-(2-methoxyethyl)-N2-methyl-1,2-ethanediamine] | 5.9 ± 0.8 | 172 ± 100 | 2.5 ± 0.8 | 162 ± 48 | 58 to 61 | 26 ± 12 | 67 ± 2
[O-][n+]1nc(NCCCN2CCOCC2)[n+]([O-])c2cc3c(cc21)CCO3 [Compound 212, N-[3-(4-Morpholinyl)propyl]-7,8-dihydrofuro[2,3-g][1,2,4]benzotriazin-3-amine 1,4-Dioxide] | 48.6 ± 12.2 | 225 ± 136 | 29.4 ± 4.2 | 355 ± 240 | 186 to 189 | 6 ± 4 | 14 ± 10
[O-][n+]1nc(NCCO)[n+]([O-])c2cc3c(cc21)CCC3 [Compound 25, 2-[(1,4-Dioxido-7,8-dihydro-6H-indeno[5,6-e][1,2,4]triazin-3-yl)amino]ethanol] | 47 ± 4 | 1520 | 17.7 ± 0.6 | 751 | 187 to 188 | 32 | 42
CCc1n[n+]([O-])c2cc3c(cc2[n+]1[O-])CCC3 [Compound 68, 3-Ethyl-7,8-dihydro-6H-indeno[5,6-e][1,2,4]triazine 1,4-Dioxide] | 48 ± 8 | 289 ± 3 | 37 ± 2 | 326 ± 7 | 140 to 142 | 6.0 ± 0.05 | 8.8 ± 0.2
